From ChEMBL document CHEMBL4342409, “Recent advancements of 4-aminoquinazoline derivatives as kinase inhibitors and their applications in medicinal chemistry” (Eur J Med Chem, 2019)

Assays:
[1] = test system: Human betaherpesvirus 5; assay: Antiviral activity against recombinant HCMV AD169 infected in human foreskin fibroblasts measured after 7 days by GFP-based multi-round replication assay relative to control; assay type: functional, organism-based; conditions: Human betaherpesvirus 5, AD169, 168 h
[2] = molecular target: T1, Epidermal growth factor receptor (Homo sapiens, UniProt P00533)
Description: Inhibition of EGFR (unknown origin)

[3] = molecular target: Epidermal growth factor receptor (Homo sapiens, UniProt P00533, L858R/T790M); assay: Inhibition of human recombinant GST-tagged EGFR L858R/T790M mutant (catalytic domain 695 to end) expressed in baculovirus-infected Sf9 cells assessed as reduction in phosphorylation of polyglutamic acid/tyrosine incubated for 60 mins by ADP-Glo assay
[4] = molecular target: T1, Epidermal growth factor receptor; assay: Inhibition of human recombinant GST-tagged EGFR (catalytic domain 695 to end) expressed in baculovirus-infected Sf9 cells assessed as reduction in phosphorylation of polyglutamic acid/tyrosine incubated for 60 mins by ADP-Glo assay
[5] = Antiproliferative activity against human NHBE cells assessed as reduction in cell viability incubated for 72 hrs by MTT assay; assay type: cell-based
[6] = molecular target: Epidermal growth factor receptor (Homo sapiens, UniProt P00533, T790M); assay: Inhibition of EGFR T790M mutant (unknown origin)
[7] = molecular target: T2, Vascular endothelial growth factor receptor 2 (Homo sapiens, UniProt P35968); assay: Inhibition of human recombinant GST-tagged VEGFR2 (catalytic domain 805 to 1356 residues) expressed in Sf9 insect cells incubated for 45 mins by Kinase-Glo assay
[8] = molecular target: T2, Vascular endothelial growth factor receptor 2; assay: Inhibition of VEGFR2 in human HUVEC assessed as reduction in cell proliferation at 10 uM incubated for 72 hrs by alamarBlue assay; assay type: cell-based
[9] = molecular target: T2, Vascular endothelial growth factor receptor 2; assay: Inhibition of VEGFR2 (unknown origin)
[10] = test system: Plasmodium falciparum; assay: Antimalarial activity against Plasmodium falciparum 3D7 infected in human erythrocytes after 72 hrs by SYBR Green1 dye based fluorescence assay relative to control; assay type: functional, organism-based; conditions: 3D7, 72 h
[11] = molecular target: T3, Aurora kinase A (Homo sapiens) (UniProt O14965); assay: Inhibition of Aurora A in human MCF7 cells relative to control; assay type: cell-based; conditions: concentration not given here
T3 sequence (whole entry): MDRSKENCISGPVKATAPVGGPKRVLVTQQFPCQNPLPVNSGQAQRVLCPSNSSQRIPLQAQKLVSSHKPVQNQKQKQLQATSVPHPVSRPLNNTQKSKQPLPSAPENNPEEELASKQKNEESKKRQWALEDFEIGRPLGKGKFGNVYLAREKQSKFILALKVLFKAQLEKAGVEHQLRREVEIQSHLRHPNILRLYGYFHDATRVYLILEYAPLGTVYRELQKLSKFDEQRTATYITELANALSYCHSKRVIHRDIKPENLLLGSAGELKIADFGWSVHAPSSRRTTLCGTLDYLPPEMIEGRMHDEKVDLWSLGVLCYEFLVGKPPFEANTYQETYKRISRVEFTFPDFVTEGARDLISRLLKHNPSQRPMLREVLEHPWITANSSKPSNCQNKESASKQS

[12] = Cytotoxicity against human EC1 cells assessed as reduction in cell growth at 2 nM incubated for 48 and 72 hrs by MTT assay; assay type: functional
[13] = Cytotoxicity against human HKESC1 cells assessed as reduction in cell growth at 2 nM incubated for 48 and 72 hrs by MTT assay; assay type: functional
[14] = Cytotoxicity against human HKESC2 cells assessed as reduction in cell growth at 2 nM incubated for 48 and 72 hrs by MTT assay; assay type: functional
[15] = Cytotoxicity against human KYSE10 cells assessed as reduction in cell growth at 2 nM incubated for 48 and 72 hrs by MTT assay; assay type: functional
[16] = Cytotoxicity against human SLMT1 cells assessed as reduction in cell growth at 2 nM incubated for 48 and 72 hrs by MTT assay; assay type: functional
[17] = Cytotoxicity against human Embryonic stem cells assessed as reduction in cell growth at 2 nM incubated for 48 and 72 hrs by MTT assay; assay type: functional
[18] = molecular target: T4, Proto-oncogene tyrosine-protein kinase Src (Homo sapiens, UniProt P12931); assay: Inhibition of human recombinant Src expressed in baculovirus infected Sf9 insect cells assessed as reduction in phosphorylation of polyglutamic acid/tyrosine incubated for 15 mins by ELISA
[19] = Antitumor activity against rat FRE-erbB2 cells xenografted in CD-1 mouse assessed as tumor growth inhibition at 50 mg/kg, po after 1 hr by ELISA relative to control; assay type: functional; conditions: read-out: TGI
[20] = molecular target: Receptor tyrosine-protein kinase erbB-4 (Homo sapiens, UniProt Q15303); assay: Inhibition of HER4 (unknown origin)
[21] = molecular target: T4, Proto-oncogene tyrosine-protein kinase Src; assay: Inhibition of SRC (unknown origin)
[22] = molecular target: Vascular endothelial growth factor receptor 3 (Homo sapiens, UniProt P35916); assay: Inhibition of VEGFR3 (unknown origin)
[23] = test system: DU-145; assay: Antitumor activity against human DU145 cells xenografted in CB17 SCID model mouse assessed as inhibition of tumor growth at 25 mg/kg, po administered for 54 days; assay type: functional; parameters: scale not given: the % may be the effect or the level left
[24] = test system: A549; assay: In vivo inhibition of neo-vascularisation in human A549 cells xenografted in athymic mouse at 50 mg/kg/day, po administered for 5 days measured after 24 hrs of last dose by light microscopy; assay type: functional

T1 sequence (P00533 whole entry, the tested form may be a part): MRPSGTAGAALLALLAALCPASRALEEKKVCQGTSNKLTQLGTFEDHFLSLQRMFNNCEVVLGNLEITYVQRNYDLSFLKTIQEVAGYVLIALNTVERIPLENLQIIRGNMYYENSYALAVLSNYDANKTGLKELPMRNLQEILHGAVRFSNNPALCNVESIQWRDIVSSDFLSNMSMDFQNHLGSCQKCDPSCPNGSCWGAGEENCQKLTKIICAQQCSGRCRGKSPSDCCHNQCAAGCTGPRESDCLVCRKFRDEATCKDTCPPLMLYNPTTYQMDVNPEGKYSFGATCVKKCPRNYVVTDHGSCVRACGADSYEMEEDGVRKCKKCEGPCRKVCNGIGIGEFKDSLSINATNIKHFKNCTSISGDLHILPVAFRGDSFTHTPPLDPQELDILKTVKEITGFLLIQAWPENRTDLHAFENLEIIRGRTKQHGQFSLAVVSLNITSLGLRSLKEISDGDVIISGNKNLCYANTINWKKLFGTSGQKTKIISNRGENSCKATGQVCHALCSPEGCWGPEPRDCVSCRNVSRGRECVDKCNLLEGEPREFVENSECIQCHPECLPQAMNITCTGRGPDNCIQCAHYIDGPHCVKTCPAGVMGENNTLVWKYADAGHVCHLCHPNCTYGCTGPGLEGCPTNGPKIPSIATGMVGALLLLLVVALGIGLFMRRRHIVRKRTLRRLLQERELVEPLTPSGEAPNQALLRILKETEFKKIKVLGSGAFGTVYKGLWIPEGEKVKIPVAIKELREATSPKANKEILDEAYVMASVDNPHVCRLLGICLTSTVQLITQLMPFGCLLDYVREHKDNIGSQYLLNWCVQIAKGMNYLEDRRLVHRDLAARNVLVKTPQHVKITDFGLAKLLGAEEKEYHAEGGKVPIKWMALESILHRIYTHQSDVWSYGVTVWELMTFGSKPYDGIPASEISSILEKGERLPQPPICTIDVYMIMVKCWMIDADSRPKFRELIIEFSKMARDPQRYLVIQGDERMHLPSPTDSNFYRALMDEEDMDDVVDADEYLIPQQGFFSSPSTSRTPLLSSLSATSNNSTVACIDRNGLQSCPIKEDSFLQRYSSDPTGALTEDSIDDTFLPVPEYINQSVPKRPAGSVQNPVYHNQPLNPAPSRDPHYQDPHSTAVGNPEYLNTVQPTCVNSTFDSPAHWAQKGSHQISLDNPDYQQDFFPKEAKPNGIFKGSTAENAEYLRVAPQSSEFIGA
T2 sequence (P35968 whole entry, the tested form may be a part): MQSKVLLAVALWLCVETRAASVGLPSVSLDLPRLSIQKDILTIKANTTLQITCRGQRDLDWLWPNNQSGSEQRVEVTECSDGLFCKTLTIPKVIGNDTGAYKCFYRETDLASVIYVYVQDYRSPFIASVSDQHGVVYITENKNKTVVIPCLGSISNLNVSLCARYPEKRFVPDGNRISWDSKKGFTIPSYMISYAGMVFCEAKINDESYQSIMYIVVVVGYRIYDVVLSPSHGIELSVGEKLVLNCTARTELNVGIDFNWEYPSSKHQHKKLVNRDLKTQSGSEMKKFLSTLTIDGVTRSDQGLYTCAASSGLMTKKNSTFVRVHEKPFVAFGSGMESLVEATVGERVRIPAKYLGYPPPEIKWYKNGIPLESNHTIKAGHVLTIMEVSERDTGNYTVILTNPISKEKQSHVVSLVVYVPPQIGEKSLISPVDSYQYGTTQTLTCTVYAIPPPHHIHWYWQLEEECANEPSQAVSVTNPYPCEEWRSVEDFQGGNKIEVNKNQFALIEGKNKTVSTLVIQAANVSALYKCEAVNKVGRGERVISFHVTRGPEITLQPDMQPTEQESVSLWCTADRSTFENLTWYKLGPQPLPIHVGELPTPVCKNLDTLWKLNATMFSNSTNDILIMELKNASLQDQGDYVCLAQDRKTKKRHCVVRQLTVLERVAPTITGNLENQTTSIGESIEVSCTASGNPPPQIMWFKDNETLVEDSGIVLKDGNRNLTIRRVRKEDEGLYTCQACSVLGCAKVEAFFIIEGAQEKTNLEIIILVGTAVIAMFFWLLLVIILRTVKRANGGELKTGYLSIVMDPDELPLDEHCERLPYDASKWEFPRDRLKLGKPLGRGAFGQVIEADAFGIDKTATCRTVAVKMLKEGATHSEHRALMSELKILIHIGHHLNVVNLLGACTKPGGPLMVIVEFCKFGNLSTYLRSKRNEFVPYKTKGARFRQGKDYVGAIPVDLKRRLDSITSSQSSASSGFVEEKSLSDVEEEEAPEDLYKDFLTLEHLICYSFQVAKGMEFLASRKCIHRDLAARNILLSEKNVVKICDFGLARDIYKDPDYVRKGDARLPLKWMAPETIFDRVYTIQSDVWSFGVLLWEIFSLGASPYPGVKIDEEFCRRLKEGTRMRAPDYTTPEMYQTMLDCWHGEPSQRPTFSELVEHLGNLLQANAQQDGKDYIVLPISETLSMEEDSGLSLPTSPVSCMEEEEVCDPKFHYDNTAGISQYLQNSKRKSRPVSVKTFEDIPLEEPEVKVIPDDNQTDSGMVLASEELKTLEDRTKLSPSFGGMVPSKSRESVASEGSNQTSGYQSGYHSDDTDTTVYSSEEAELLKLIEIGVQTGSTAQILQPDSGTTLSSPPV
T4 sequence (P12931 2-536 limits assumed): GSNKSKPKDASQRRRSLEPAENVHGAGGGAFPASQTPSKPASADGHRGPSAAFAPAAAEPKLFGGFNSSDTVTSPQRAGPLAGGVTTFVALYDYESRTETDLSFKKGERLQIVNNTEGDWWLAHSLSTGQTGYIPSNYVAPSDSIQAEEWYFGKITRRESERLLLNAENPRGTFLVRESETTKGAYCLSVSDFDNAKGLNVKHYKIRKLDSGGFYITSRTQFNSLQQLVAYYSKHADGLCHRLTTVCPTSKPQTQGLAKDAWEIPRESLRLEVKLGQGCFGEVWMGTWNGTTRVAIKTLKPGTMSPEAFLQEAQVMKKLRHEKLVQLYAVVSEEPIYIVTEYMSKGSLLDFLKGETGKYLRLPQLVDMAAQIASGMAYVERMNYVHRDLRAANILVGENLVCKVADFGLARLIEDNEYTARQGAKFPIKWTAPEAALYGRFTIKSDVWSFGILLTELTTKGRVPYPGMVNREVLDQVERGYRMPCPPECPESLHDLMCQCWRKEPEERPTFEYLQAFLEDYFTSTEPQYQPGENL
Chain of Receptor tyrosine-protein kinase erbB-4 (Q15303 whole entry): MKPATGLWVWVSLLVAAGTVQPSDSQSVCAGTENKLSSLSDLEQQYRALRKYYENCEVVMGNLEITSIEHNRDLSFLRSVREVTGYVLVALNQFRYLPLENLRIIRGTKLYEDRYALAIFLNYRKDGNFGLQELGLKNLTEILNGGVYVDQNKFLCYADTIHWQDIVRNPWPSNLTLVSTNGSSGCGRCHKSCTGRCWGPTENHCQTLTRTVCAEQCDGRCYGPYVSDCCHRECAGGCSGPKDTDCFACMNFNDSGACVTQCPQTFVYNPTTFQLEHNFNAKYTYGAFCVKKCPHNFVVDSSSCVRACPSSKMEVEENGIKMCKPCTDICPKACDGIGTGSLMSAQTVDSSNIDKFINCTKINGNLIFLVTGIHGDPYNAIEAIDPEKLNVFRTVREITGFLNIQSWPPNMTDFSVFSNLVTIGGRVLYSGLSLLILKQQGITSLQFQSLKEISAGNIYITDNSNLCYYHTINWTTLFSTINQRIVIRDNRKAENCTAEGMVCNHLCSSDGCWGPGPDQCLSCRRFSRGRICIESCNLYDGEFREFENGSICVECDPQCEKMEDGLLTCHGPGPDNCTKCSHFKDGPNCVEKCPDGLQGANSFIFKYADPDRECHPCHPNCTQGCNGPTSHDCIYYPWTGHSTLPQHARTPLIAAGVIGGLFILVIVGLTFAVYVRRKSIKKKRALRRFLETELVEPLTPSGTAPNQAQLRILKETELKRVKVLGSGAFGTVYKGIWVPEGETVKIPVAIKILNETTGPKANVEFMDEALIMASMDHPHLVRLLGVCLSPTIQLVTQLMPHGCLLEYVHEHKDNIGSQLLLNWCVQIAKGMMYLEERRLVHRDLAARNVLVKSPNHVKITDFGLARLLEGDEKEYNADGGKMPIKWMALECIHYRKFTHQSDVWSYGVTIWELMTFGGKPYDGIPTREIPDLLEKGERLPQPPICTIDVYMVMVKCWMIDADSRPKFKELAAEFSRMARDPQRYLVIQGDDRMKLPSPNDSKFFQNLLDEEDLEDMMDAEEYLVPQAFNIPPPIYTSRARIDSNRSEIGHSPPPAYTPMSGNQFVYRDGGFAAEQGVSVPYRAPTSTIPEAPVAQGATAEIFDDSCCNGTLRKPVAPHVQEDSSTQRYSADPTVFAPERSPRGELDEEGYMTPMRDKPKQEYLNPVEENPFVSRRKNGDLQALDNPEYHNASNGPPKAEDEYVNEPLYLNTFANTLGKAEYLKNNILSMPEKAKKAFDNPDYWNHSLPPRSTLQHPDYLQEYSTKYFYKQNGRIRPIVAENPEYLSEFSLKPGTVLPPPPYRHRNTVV

`C[C@H]1[C@@H](CC(=O)Nc2ccc3ncnc(Nc4ccc(Cl)c(Cl)c4)c3c2)O[C@@H]2O[C@@]3(C)CC[C@H]4[C@H](C)CC[C@@H]1[C@@]24OO3` gave an EC50 [1] of 150 to 210 µM.
Compound `C=CC(=O)Nc1ccc(Nc2ncnc3cc(OC)c(OCCN4CCOCC4)cc23)cc1` has an IC50 [2] of 0.105 µM, an IC50 [3] of 0.0043 µM and an IC50 [4] of 0.105 µM. For the same compound, the IC50 [5] was over 34 µM and the IC50 [6] was 0.0043 µM.
In the case of `COc1cc2ncnc(-n3ncc4cc(NC(=O)Nc5ccc(C)c(Cl)c5)ccc43)c2cc1OC`, the IC50 [7] is reported as 0.005 µM and the inhibition [8] is reported as 80 to 99.6%.
In the case of `C=CC(=O)Nc1cc2c(Nc3ccc(Br)cc3F)ncnc2cc1OCCCC(=O)CN(C)C`, the IC50 [2] is reported as 0.002 µM and the IC50 [9] is reported as 0.103 µM.
`C[C@H]1[C@H](OC(=O)CCC(=O)Nc2ccc3ncnc(Nc4ccc(Cl)c(Cl)c4)c3c2)O[C@@H]2O[C@@]3(C)CC[C@H]4[C@H](C)CC[C@@H]1[C@@]24OO3` gave an EC50 [10] of 0.0014 µM and an EC50 [1] of 150 to 210 µM.
With `COc1cc2c(Nc3ccc(C(=O)Nc4ccccc4)cc3)ncnc2cc1O` the inhibition [11] was 60%.
`CN(C)C/C=C/C(=O)Nc1cc2c(Nc3ccc(F)c(Cl)c3)ncnc2cc1O[C@H]1CCOC1` [AFATINIB] showed an inhibition at 0.002 µM [12] of over 95%, an inhibition at 0.002 µM [13] of over 95% and an inhibition at 0.002 µM [14] of over 95%. The inhibition at 0.002 µM [15] was over 95%, the inhibition at 0.002 µM [16] was over 95% and the inhibition at 0.002 µM [17] was over 95%.
With `COc1ccc(Cl)c(Nc2ncnc3cc(OCC4CCN(C)CC4)c(OC)cc23)c1` [AZM-475271] the IC50 [18] was 0.005 µM.
With `COCC(=O)NC/C=C/c1ccc2ncnc(Nc3ccc(Oc4ccc(C)nc4)c(C)c3)c2c1` [CP-724714] the inhibition in vivo at 50 mg/kg [19] was 50%.
`COc1cc2ncnc3c2cc1OCCCCCN(C)Cc1ccc(Br)cc1N3` [JNJ-26483327] gave an IC50 [2] of under 0.01 µM, an IC50 [20] of 0.011 to 0.099 µM and an IC50 [21] of 0.011 to 0.099 µM. For the same compound, the IC50 [22] was 0.011 to 0.099 µM.
With `CN1CCN(CCOc2cc(OC3CCOCC3)c3c(Nc4c(Cl)ccc5c4OCO5)ncnc3c2)CC1` [SARACATINIB] the Activity [23] was 45%.
For `COc1cc2/c(=N/c3ccc(Br)cc3F)nc[nH]c2cc1OCC1CCN(C)CC1` [VANDETANIB], the inhibition in vivo at 50 mg/kg/day [24] was 63%.
Compound `C[C@@H]1COC(Nc2ccc3ncnc(Nc4ccc(OCc5nccs5)c(Cl)c4)c3c2)=N1` [VARLITINIB] has an IC50 [20] of 0.004 µM.
